Measured values: patent US20070004674A1, “Remedy for diseases associated with immunoglobulin gene translocation” (Kyowa Hakko Kogyo Co. Ltd., priority 2003, published 2007)

Tests used:
[1] = system: multiple myeloma cells; conditions: mice to which multiple myeloma cells were transplanted; Blood, 100, 392 (2002); cited from earlier work
[2] = system: Erk2; test: Western blot: Erk2 level in KMS-11 cells; assay type: cell-based, human; conditions: KF58333 4.0, 20 and 100 nmol/l, 40 hours, FIG. 1, Erk2 is not an Hsp90 client protein
Protocol: (§1) KMS-11 cells derived from human multiple myeloma [In Vitro Cell. Dev. Biol., 25, 723 (1989)], which were diluted to 10,000 cells/ml with RPMI 1640 medium containing 10% fetal bovine serum (hereinafter referred to as “culturing medium”), were put in plastic culture flasks (125 cm^2, Nunc) in 30 ml portions. KMS-11 cells are reported to be the cells in which a large amount of FGFR3 is expressed as a result of translocation between immunoglobulin gene on 14q32 and FGFR3 gene on 4p16.3 [Blood, 90, 4062 (1997)]. […]
(§2) To the thus recovered cells was added a cooled lysis buffer (50 mmol/l HEPES NaOH, pH 7.4, 250 mmol/l sodium chloride, 1 mmol/l ethylenediamine tetraacetate, 1% Nonidet P-40, 1 mmol/l dithiothreitol, 1 mmol/l phenylmethylsulfonyl fluoride, 5 μg/ml leupeptin), and the mixture was allowed to stand at 4° C. for 30 minutes for cytolysis, followed by centrifugation at 20000 G for 10 minutes. The concentration of proteins in the supernatant thus obtained was measured, and the samples were adjusted so that the amount of proteins per each lane was the same. […]
(§3) The separated protein samples were each transferred to a polyvinylidene difluoride membrane (Millipore). […] The band of each protein was detected by FluorImager (Molecular Dynamics) after reaction with ECF reagent (Molecular Dynamics).

[3] = system: KMS-11 cells; test: In vivo antitumor effect in KMS-11 cell-transplanted mice; conditions: KMS-11 subcutaneous tumor in scid mice, 25 mg/kg intravenously once a day for 5 consecutive days, measured up to day 24, FIG. 3
Protocol: In vivo antitumor effect of a compound having an inhibitory action on Hsp90 was examined using a human tumor model prepared by transplanting KMS-11 cells to immunodeficient mice as a model of a disease associated with immunoglobulin gene translocations.
KMS-11 cells were cultured in a 5% CO2 incubator at 37° C. using the culturing medium for propagation. One day before transplantation, 0.3 mg/mouse of anti-asialo GM1 antibody was intraperitoneally administered to 10 […] Fox C.B-17/Icr-scidJcl mice (CLEA JAPAN). One day after the administration of the antibody, the cultured KMS-11 cells (1×10^7 cells/mouse) were subcutaneously transplanted to the mice. Fourteen days after the transplantation, the longer diameter and shorter diameter of the tumor subcutaneously grown were measured with slide calipers, and the tumor volume was calculated according to the following equation: Tumor volume V(mm^3)={longer diameter (mm)×[shorter diameter(mm)]^2}/2
At the same time, the body weight of each mouse was measured, and the mice were divided into two groups of 5 mice each so that the tumor volume and the body weight are randomized. The day was defined as day 0 of the administration test, and drug administration was started in the following manner. […]

[4] = system: KMS-11 cells; test: Growth inhibition of KMS-11 cells (XTT); assay type: cell-based; conditions: Homo sapiens, 72 hours, calculated from the graph of FIG. 2, read-out: concentration to inhibit cell growth by 50% (GI50 value)
Protocol: KMS-11 cells diluted to 2×10^5 cells/ml with the culturing medium were pipetted into a 96-well microplate (Nunc) in an amount of 50 μl ([…]) per well. To each well was added 50 μl of a solution prepared by diluting a 10 mmol/l solution of KF58333 in DMSO to 600 nmol/l with the culturing medium and further serially diluting the resulting solution threefold with the culturing medium so as to make the final concentrations of KF58333 of 300, 100, 33.3, 11.1, 3.70 and 1.23 nmol/l, respectively. […] Thereafter, incubation was carried out in a 5% CO2 incubator at 37° C. for 72 hours, and the number of living cells was measured in the following manner. […] Then, the absorbance at 450 nm and 655 nm was measured using a microplate spectrophotometer (Model 550, BIO-RAD). A value (difference in absorbance) was calculated by subtracting the absorbance at 655 nm from that at 450 nm for each well. Since the number of living cells is proportional to the difference in absorbance, the rate (%) of the value of difference in absorbance obtained for cells to which various concentrations of KF58333 were added to that obtained for control cells to which KF58333 was not added when the latter value was designated as 100% was calculated as the rate of the number of living cells to that of control, and the cell growth inhibitory activity of KF58333 was measured.

[5] = system: FGFR3; test: Western blot: intracellular disappearance of FGFR3 in KMS-11 cells; assay type: cell-based, human; conditions: KF58333 4.0, 20 and 100 nmol/l, 40 hours, FIG. 1
Protocol: as §1, §2, §3

[6] = system: Cdk6; test: Western blot: Cdk6 level in KMS-11 cells; assay type: cell-based, human; conditions: KF58333 4.0, 20 and 100 nmol/l, 40 hours, FIG. 1
Protocol: as §1, §2, §3

[7] = system: Raf-1; test: Western blot: Raf-1 level in KMS-11 cells; assay type: cell-based, human; conditions: KF58333 4.0, 20 and 100 nmol/l, 40 hours, FIG. 1
Protocol: as §1, §2, §3

Compound	survival time of mice [1]	intracellular amount of Erk2 (Western blot) [2]	tumor growth (volume ratio V/V0) [3]	GI50 [4]	intracellular amount of FGFR3 (Western blot) [5]	intracellular amount of Cdk6 (Western blot) [6]	intracellular amount of Raf-1 (Western blot) [7]
C=CCNC1=C2C[C@@H](C)C[C@H](OC)[C@H](O)[C@@H](C)/C=C(\C)[C@H](OC(N)=O)[C@@H](OC)/C=C\C=C(/C)C(=O)NC(=CC1=O)C2=O [17-allylamino-17-demethoxy geldanamycin]	extended survival time	–	–	–	–	–	–
CC1CC2OC2\C=C/C=C/C(=N\OCCN2CCCC2=O)Cc2c(Cl)c(O)cc(O)c2C(=O)O1 (stereo not shown) [KF58333]	–	no change	apparent suppression of tumor growth	19.8 nM	disappeared	disappeared	disappeared
